From patent US20110105389A1 (priority 2009, published 2011)
“And” between values parts separate entries of the source, which are not always exact repeats. Identical values can stand only once.

What was measured:
CYP3A4 = CYP3A4 (Homo sapiens, UniProt P08684); assay: biochemical
CYP2D6 = CYP2D6 (Homo sapiens, UniProt P10635); assay: biochemical
[1] = tested on: rat stomach fundus strips; assay: Ex-vivo potency evaluation on the rat stomach fundus (inhibition of ghrelin-induced contractility), Method B10; details: EFS
Description: B10. Ex-vivo Potency Evaluation on the Rat Stomach Fundus
Fundus strips (approximately 0.4×1 cm) were cut from the stomach of adult male Wistar rats parallel to the circular muscle fibers. They were placed between two platinum ring electrodes, 1 cm apart (Radnoti, ADlnstruments, USA) in 10 ml tissue baths containing Krebs solution bubbled with 5% CO2 in O2 and maintained at 37° C. Tissues were suspended under 1.5 g resting tension. Changes of tension were measured isometrically with force transducers and recorded with a PowerLab 8/30 data acquisition system (ADlnstruments, USA). Tissues were allowed to equilibrate for 60 min during which time bath solutions were changed every 15 min.
EFS was achieved by applying 0.5 ms pulses, 5 Hz frequency, at a maximally effective voltage of 70 V. EFS was applied for 30 sec at 3 min intervals for a 30 min initial period. This initial period was separated by a […] interval with wash out of the bath solution. Then, a second period of stimulation was started. […] Responses to the agents were measured and expressed as % of the mean of three or four pre-drug responses to EFS. All compounds were dissolved at 1 mM in distilled water or MeOH, as stock solutions.
IC50 values for the inhibition of ghrelin-induced contractility by representative compounds of the invention are presented in Table 7.

[2] = biological target: T1, GHS-R1a receptor (HEK293 cells expressing GHS-R1a receptor) (Homo sapiens, UniProt Q92847); assay: Fluorescence functional assay (ghrelin receptor), Method B2, agonist and antagonist mode; assay type: cell-based; details: functional activity as an antagonist at the ghrelin receptor, Methods B2 and B3
T1 construct: host or cells: HEK293
Outline: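 Calcium flux read by ImageTrak epifluorescence in HEK293 cells stably expressing GHS-R1a, loaded 1 h at 37 °C with Calcium-3 dye; buffer HBSS/20 mM Hepes, pH 7.4, with probenecid and BSA. Agonists injected after 10 s baseline, read 50 s more; antagonists 3 min. Sigmoidal fits gave EC50 or IC50.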

[3] = Plasma protein binding (equilibrium dialysis), Method B5; assay type: in vitro ADME; details: 60 min at 37° C., typically 10 μM; for fraction unbound at 60 min, 10 μM: human plasma
From the text: B5. Plasma Protein Binding
The pharmacokinetic and pharmacodynamic properties of drugs are largely a function of the reversible binding of drugs to plasma or serum proteins such as albumin and α1-acid glycoprotein. In general, only unbound drug is available for diffusion or transport across cell membranes, and for interaction at the pharmacological target. On the other hand, drugs with low plasma protein binding generally have large volumes of distribution and rapid clearance since only unbound drug is available for glomerular filtration and, in some cases, hepatic clearance. Thus, the extent of plasma protein binding can influence efficacy, distribution and elimination. The ideal range for plasma protein binding is in the range of 87-98% for most drug products.
Protein binding studies were performed using human plasma. Briefly, 96-well microplates were used to incubate various concentrations of the test article for 60 min at 37° C. A concentration of 10 μM was a typical selection to be employed in this study. Bound and unbound fractions are separated by equilibrium dialysis, where the concentration remaining in the unbound fraction is quantified by LC-MS or LC-MS-MS analysis. […].

CYP3A4, sequence (P08684 whole entry): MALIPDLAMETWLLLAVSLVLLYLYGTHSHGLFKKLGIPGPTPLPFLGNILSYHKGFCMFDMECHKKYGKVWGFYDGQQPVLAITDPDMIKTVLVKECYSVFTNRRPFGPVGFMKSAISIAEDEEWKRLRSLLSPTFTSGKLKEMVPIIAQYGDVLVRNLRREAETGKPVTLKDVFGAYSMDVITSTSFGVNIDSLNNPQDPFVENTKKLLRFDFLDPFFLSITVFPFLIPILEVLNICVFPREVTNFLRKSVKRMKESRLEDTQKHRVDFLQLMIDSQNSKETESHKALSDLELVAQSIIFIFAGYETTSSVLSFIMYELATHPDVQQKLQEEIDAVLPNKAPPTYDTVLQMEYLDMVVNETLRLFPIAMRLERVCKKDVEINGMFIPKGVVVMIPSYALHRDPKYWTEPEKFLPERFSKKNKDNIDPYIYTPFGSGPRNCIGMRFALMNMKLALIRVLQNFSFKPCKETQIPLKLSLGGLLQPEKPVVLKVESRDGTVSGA
CYP2D6, sequence (P10635 whole entry): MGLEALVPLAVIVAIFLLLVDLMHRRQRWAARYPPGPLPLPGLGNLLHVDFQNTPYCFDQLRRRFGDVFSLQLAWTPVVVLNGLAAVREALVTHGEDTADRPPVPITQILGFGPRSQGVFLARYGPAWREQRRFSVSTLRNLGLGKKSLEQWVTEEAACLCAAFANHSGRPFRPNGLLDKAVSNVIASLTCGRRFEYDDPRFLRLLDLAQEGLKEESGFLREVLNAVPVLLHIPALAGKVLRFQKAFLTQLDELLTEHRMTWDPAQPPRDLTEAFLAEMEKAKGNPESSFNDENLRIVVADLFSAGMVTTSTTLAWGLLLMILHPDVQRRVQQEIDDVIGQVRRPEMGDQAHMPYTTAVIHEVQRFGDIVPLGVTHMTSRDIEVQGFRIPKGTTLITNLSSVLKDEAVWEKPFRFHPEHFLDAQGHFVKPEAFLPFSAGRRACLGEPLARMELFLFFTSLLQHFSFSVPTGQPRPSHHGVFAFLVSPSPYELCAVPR
T1 sequence (Q92847 whole entry): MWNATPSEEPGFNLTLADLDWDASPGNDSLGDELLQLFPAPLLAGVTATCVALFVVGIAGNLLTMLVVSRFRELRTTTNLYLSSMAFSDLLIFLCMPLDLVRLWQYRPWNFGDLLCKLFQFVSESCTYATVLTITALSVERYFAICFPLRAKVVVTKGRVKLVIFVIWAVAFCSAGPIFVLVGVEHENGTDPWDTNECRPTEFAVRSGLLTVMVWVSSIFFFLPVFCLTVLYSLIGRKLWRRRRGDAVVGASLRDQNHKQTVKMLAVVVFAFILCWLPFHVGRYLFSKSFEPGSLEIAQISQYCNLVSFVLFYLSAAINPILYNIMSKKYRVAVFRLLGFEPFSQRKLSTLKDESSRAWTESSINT

Row | SMILES | IC50 (CYP3A4) | IC50 (CYP2D6) | IC50 [1] [µM] | Antagonist Activity [2] | fraction unbound at 60 min, 10 μM [3] | Binding (%), Human Plasma Protein Binding [3] [%]
1 | Cc1cccc(C[C@H]2NC(=O)[C@H](C(C)O)N(C)C(=O)[C@H](C(C)C)NCCOc3ccccc3C[C@H](O)CNC2=O)c1 (some centres unmarked) [Compound 1453] | 13.4 µM and 3.7 µM | 9.21 µM and 9.2 µM | 2.9 | B (B = 1-10 nM) | 0.243 | –
2 | CC(C)[C@@H]1NCCOc2ccccc2C[C@H](O)[C@@H](C)NC(=O)[C@@H](Cc2cccc(F)c2)NC(=O)[C@H](C(C)O)N(C)C1=O (some centres unmarked) [Compound 1503] | 14.3 µM | 55.8 µM | 0.65 | B (B = 1-10 nM) | 0.221 | –
3 | CC[C@@H]1CCc2ccc(F)cc2OCCN[C@@H](C(C)C)C(=O)N(C)[C@@H](C(C)O)C(=O)N[C@H](Cc2c[nH]c3ccccc23)C(=O)N1 (some centres unmarked) [Compound 1505] | 0.7 µM | 2.1 µM | 0.0125 | B (B = 1-10 nM) | 0.036 | –
4 | CC(C)[C@@H]1NCCOc2ccccc2C#C[C@@H](C)NC(=O)[C@@H](Cc2ccccc2)NC(=O)[C@H](C(C)O)N(C)C1=O (some centres unmarked) [Compound 1688] | 8.5 µM | 20.2 µM | 0.0001 | A (A <1 nM) | 0.091 | –
5 | CC(C)C1NCCOc2ccccc2C#CCNC(=O)C(Cc2c[nH]c3ccccc23)NC(=O)C(C(C)O)N(C)C1=O (centres unmarked) [Compound 1692] | – | – | – | C (C = 10-100 nM) | – | 98.2
6 | CC(C)C1NCCOc2cc(F)ccc2C#CCNC(=O)C(Cc2c[nH]c3ccccc23)NC(=O)C(C(C)O)N(C)C1=O (centres unmarked) [Compound 1693] | – | – | – | C (C = 10-100 nM) | – | –
7 | CCC1CCc2ccc(F)cc2OCCNC(C2(C)CC2)C(=O)N(C)C(C(C)O)C(=O)NC(Cc2c[nH]c3ccccc23)C(=O)N1 (centres unmarked) [Compound 1703] | – | – | – | B (B = 1-10 nM) | – | 99.5
8 | CC[C@@H]1C#Cc2ccc(F)cc2O[C@H](C)CN[C@@H](C2(C)CC2)C(=O)N(C)[C@@H](C(C)O)C(=O)N[C@H](Cc2c[nH]c3ccccc23)C(=O)N1 (some centres unmarked) [Compound 1707] | – | – | – | B (B = 1-10 nM) | – | 99.6
9 | CC(C)[C@@H]1NCCOc2ccccc2C#CCNC(=O)[C@@H](Cc2ccccc2)NC(=O)[C@H](C(C)O)N(C)C1=O (some centres unmarked) [Compound 1712] | 5.8 µM | – | 0.0034 | – | 0.024 | –
10 | CC(O)[C@H]1C(=O)N[C@H](Cc2c[nH]c3ccccc23)C(=O)N[C@H](C)C#Cc2ccccc2OCCN[C@@H](C2(C)CC2)C(=O)N1C (some centres unmarked) [Compound 1713] | – | – | – | B (B = 1-10 nM) | – | –
11 | CC[C@@H]1C#Cc2ccccc2O[C@H](C)CN[C@@H](C2(C)CC2)C(=O)N(C)[C@@H](C(C)O)C(=O)N[C@H](Cc2c[nH]c3ccccc23)C(=O)N1 (some centres unmarked) [Compound 1718] | – | – | – | B (B = 1-10 nM) | – | –
12 | CC(O)[C@H]1C(=O)N[C@H](Cc2c[nH]c3ccccc23)C(=O)N[C@H](C)CCc2ccc(F)cc2O[C@H](C)CN[C@@H](C2(C)CC2)C(=O)N1C (some centres unmarked) [Compound 1719] | – | – | – | C (C = 10-100 nM) | – | –
13 | CC(O)[C@H]1C(=O)N[C@H](Cc2c[nH]c3ccccc23)C(=O)N[C@H](C)C#Cc2ccc(F)cc2O[C@H](C)CN[C@@H](C2(C)CC2)C(=O)N1C (some centres unmarked) [Compound 1720] | – | – | – | B (B = 1-10 nM) | – | –
14 | CC[C@@H]1C#Cc2c(F)cccc2OCCN[C@@H](C(C)C)C(=O)N(C)[C@@H](C(C)O)C(=O)N[C@H](Cc2c[nH]c3ccccc23)C(=O)N1 (some centres unmarked) [Compound 1726] | – | – | – | B (B = 1-10 nM) | – | 99.8
15 | CC[C@@H]1CCc2ccc(F)cc2OCCN[C@@H](C2(C)CC2)C(=O)N(C)[C@@H](C(C)O)C(=O)N[C@H](Cc2ccccc2)C(=O)N1 (some centres unmarked) [Compound 1746] | – | – | – | B (B = 1-10 nM) | – | –
16 | CC[C@@H]1CCc2ccc(F)cc2OCCN[C@@H](C(C)C)C(=O)N(C)[C@@H](C(C)O)C(=O)N[C@H](Cc2ccc(O)cc2)C(=O)N1 (some centres unmarked) [Compound 1751] | – | – | – | B (B = 1-10 nM) | – | 97.4
17 | CC[C@@H]1C#Cc2ccccc2OCCN[C@@H](C(C)C)C(=O)N(C)[C@@H](C(C)O)C(=O)N[C@H](Cc2c[nH]c3ccccc23)C(=O)N1 (some centres unmarked) [Compound 1754] | – | – | – | B (B = 1-10 nM) | – | 99.4
18 | CC[C@@H]1C#Cc2ccc(F)cc2OCCN[C@@H](C(C)C)C(=O)N(C)[C@@H](C(C)O)C(=O)N[C@H](Cc2c[nH]c3ccccc23)C(=O)N1 (some centres unmarked) [Compound 1755] | – | – | – | B (B = 1-10 nM) | – | 99.3
19 | CC(C)[C@@H]1NCC2CCc3cccc(c3O2)CCCNC(=O)[C@@H](Cc2ccccc2)NC(=O)[C@H](C(C)O)N(C)C1=O (some centres unmarked) [Compound 1777] | – | – | 0.0078 | B (B = 1-10 nM) | – | 95.8
20 | CC(O)[C@H]1C(=O)N[C@H](Cc2ccccc2)C(=O)NCCCc2cccc3c2OC(CC3)CN[C@@H](C2CC2)C(=O)N1C (some centres unmarked) [Compound 1778] | 7.7 µM | 21.1 µM | 0.012 | B (B = 1-10 nM) | 0.076 | –
21 | CC[C@@H]1NCC2CCc3cccc(c3O2)CCCNC(=O)[C@@H](Cc2ccccc2)NC(=O)[C@H](C(C)O)N(C)C1=O (some centres unmarked) [Compound 1780] | 6 µM | 35.7 µM | 0.0121 | B (B = 1-10 nM) | 0.061 | –
22 | CC(C)[C@@H]1NCCOc2ccccc2C2CCC(C2)NC(=O)[C@@H](Cc2c[nH]c3ccccc23)NC(=O)[C@H](C(C)O)N(C)C1=O (some centres unmarked) [Compound 1843] | – | – | 0.0023 | A (A <1 nM) | – | 92.1
23 | CC(C)[C@@H]1NCCOc2ccccc2C2CCC(C2)NC(=O)[C@@H](Cc2ccccc2)NC(=O)[C@H](C(C)O)N(C)C1=O (some centres unmarked) [Compound 1848] | 8 µM | 14.1 µM | 0.015 | A (A <1 nM) | 0.207 | –
24 | CC(O)[C@H]1C(=O)N[C@H](Cc2ccccc2)C(=O)NCC#Cc2c(F)cccc2OCCN[C@@H](C2(C)CC2)C(=O)N1C (some centres unmarked) [Compound 1876] | 8.5 µM | 23.1 µM | 0.06 | A (A <1 nM) | 0.05 | –
25 | CC(O)[C@H]1C(=O)N[C@H](Cc2ccccc2)C(=O)NCC#Cc2ccccc2OCCN[C@@H](C2(C)CC2)C(=O)N1C (some centres unmarked) [Compound 1878] | 11.6 µM | 45.3 µM | 0.03 | A (A <1 nM) | 0.127 | –
26 | CC(C)[C@@H]1NCCOc2ccccc2C2CCC(C2)NC(=O)[C@@H](Cc2ccc(F)cc2)NC(=O)[C@H](C(C)O)N(C)C1=O (some centres unmarked) [Compound 1903] | 9 µM | 8 µM | 0.0016 | A (A <1 nM) | 0.159 | –
27 | CC(O)[C@H]1C(=O)N[C@H](Cc2ccccc2)C(=O)NCC#Cc2ccc(F)cc2OCCN[C@@H](C2(C)CC2)C(=O)N1C (some centres unmarked) [Compound 1918] | 16.3 µM | 8.1 µM | 0.026 | B (B = 1-10 nM) | – | –
28 | CC(C)[C@@H]1NCCOc2cccc(F)c2C#CCNC(=O)[C@@H](Cc2ccccc2)NC(=O)[C@H](C(C)O)N(C)C1=O (some centres unmarked) [Compound 1929] | – | 25.7 µM | 0.002 | B (B = 1-10 nM) | – | –
